Measured values reported in patent US20020049190A1, “Pharmaceutical compositions comprising metal complexes” (priority 1999, published 2002).

What was measured:
[1] = test system: murine (RAW264) macrophage cell lines; assay: In vitro cell culture test: available nitric oxide (nitrite+nitrate) in activated macrophages; format: cell-based; conditions: LPS + interferon γ activated RAW264, 18 hours
Procedure: Concurrently, test compounds made up in MEM were added at non-cytotoxic concentrations. Control cells as above, which were activated to produce nitric oxide as above, but to which no test compound was added, were used as a measure of the amouint of nitric oxide produced by the cells during the tests. (See […]. Powell, O. J. Vaughan, G. R. Henderson, B. A. Murrer, […]. Bisland, […], Ruthenium complexes as nitric oxide scavengers: a potential therapeutic approach to nitric oxide-mediated diseases, Br. J Pharmacol., 1997, 122, 1441-1449.) Background nitric oxide was assessed by measurement of nitrate and nitrite in cells which were not activated. Cell viability was confirmed by Trypan blue dye exclusion at the end of the incubation period. Nitric oxide was determined by measurement of nitrate and nitrite in the cell supernatant. These anions are the stable end-products of reactions of NO in solution. Such reactions may or may not be catalysed in biological systems. The sum of nitrite and nitrate concentrations gives the total NO production. […] Nitrate was determined by reducing nitrate to nitrite with a bacterial nitrate reductase from Pseudomonas oleovorans and then measuring nitrite with the Griess reaction. In the absence of test compounds nitrite concentration plus nitrate concentration is equal to total nitric oxide production. The effect of test compounds on available nitric oxide (measured as nitrite+nitrate) was determined. The reduction in available nitric oxide compared with the control level may be taken as an indication of the degree of binding of NO by the test compounds.

[2] = In vitro test of NO uptake: manometer pressure and IR spectrum of freeze-dried product; format: binding; conditions: aqueous solution under argon, 20° C.-24° C., NO gas in headspace, one hour
Procedure: The resulting solution was placed in a three-necked pear-shaped flask and stirred by a magnetic stirrer at constant speed of 1000 rpm, at a constant temperature in the range 20° C.-24° C. A manometer was attached to the flask, and purified, dried nitric oxide gas (known volume in the range 3-5cm^3) was introduced via a septum, using a gas syringe, at atmospheric pressure into the headspace above the reaction solution. The pressure within the flask was recorded periodically over a period of one hour.
A control experiment was carried out according to the above but without any complex present.
On completion of each in vitro test, the reaction solution was freeze-dried. An infrared spectrum of the freeze-dried product provided information on metal-NO bond formation.

rat tail artery = assay: Ex vivo test: perfused pre-contracted rat tail artery, vasoconstriction; conditions: for Vasoconstriction on application of test compound: 10 μM and 100 μM (Example 26 also 1000 μM); for % Vasoconstriction: artery pre-contracted with 6.5 μM phenylephrine; for Reversibility of the vasoconstriction: washout with Krebs solution
Source text: In the ex vivo tests, segments of rat tail artery (0.8-1.5 cm) were dissected free from normotensive adult Wistar rats. The arteries were internally perfused with Krebs solution (mM: NaCl 118, KCl 4.7, NaHCO3 25, NaH2PO4 1.15, CaCl22.5, MgCl2 1.1, glucose 5.6 and gassed with 95% O2/5% CO2 to maintain a pH of 7.4) in a constant flow perfusion apparatus. A differential pressure transducer located upstream of the vessel detected changes in back pressure. The rat tail artery preparation was pre-contracted with 6.5 μM phenylephrine to give a physiologically normal pressure of 100-120 mm Hg. The pre-contracted vessels were then perfused with the test compound. The arteries were perfused with Krebs solution between applications of test compound to wash out the test compound.
Pressure changes in the system served to indicate artery vasoconstriction. The vasoconstriction is a direct result of the removal of endogenous nitric oxide (edrf) from the endothelial cells of the rat tail artery.

[3] = test system: rat P22 carcinosarcoma grown in BD-IX rats; assay: Tumour growth, vascularisation and plasma nitrite/nitrate in rats bearing P22 carcinosarcoma; format: in vivo; conditions: for Nitrite/nitrate levels at Day 28 / Tumour vascularisation (MVD), Mean Chalkey score: 50 mg/kg daily i.p. Day 10-Day 28; for Nitrite/nitrate levels at Day 28: Griess assay, untreated control 7.75; for Tumour vascularisation (MVD), Mean Chalkey score: anti-CD31 immunostaining, untreated control 13.0; for Tumour growth: 50 mg/kg daily intraperitoneal, Day 10-Day 28, male BD-IX rats
Procedure: The effect of AMD6245 (Example 113) and AMD6221 (Example 8) on tumour growth was assessed using the rat P22 carcinosarcoma grown in BD-IX rats (Kennovin et al., in Biology of Nitric Oxide, Vol. 4, (S. Moncada, M. Feelisch, R. Busse, and A. E. Higgs, eds.), Portland Press, London, 1994, pp. 473-479). The tumour was implanted subcutaneously on the dorsal surface of male BD-IX rats on Day 0. Tumour growth was measured daily using calipers and tumour volume calculated from the equation […] where X=the short tumour axis and Y=the long tumour axis. Tumours were measurable by Day 10. AMD6245 and AMD6221 were administered daily by intraperitoneal injection at a dose of 50 mg/kg from Day 10-Day 28. Tumour vascularisation (Microvascular Density or MVD) was measured by Chalkley point counting after immunostaining with anti-CD31 antibody (Vermeulen et al., Eur. J. Cancer, 32A, 2474-2484, (1996)). Nitrite/nitrate was measured by the Griess assay (see Table 4). These anions are the stable end products of NO in solution. Nitrate was first reduced to nitrite by […]. The sum of nitrite and nitrate gives the total NO production.

Row | Molecule | % Decrease of Available Nitric Oxide ([1]; 100 μM test compound) [%] | Pressure decrease indicating binding of NO to the metal compound [2] | Vasoconstriction on application of test compound (rat tail artery) | % Vasoconstriction (rat tail artery; 10 μM) [%] | % Vasoconstriction (rat tail artery; 100 μM) [%] | Reversibility of the vasoconstriction (rat tail artery) | other results
1 | O.O.O=C([O-])CN(CCN(CC(=O)[O-])CC(=O)O)CC(=O)[O-].[Cl-].[K+].[Ru+3] [Example 1, K[Ru(hedta)Cl]2H2O] | 75 | pressure decrease indicated binding of NO |  |  |  |  | % Decrease of Available Nitric Oxide ([1]; 25 μM test compound): 12%; % Decrease of Available Nitric Oxide ([1]; 50 μM test compound): 23%
2 | CC(=O)C=C(C)[O-].O=C([O-])CN(CCN(CC(=O)O)CC(=O)O)CC(=O)[O-].[Ru+3] [Example 2, [Ru(H2edta)(acac)]] | 82 |  | dose-dependent vasoconstriction | 20 | 69 | reversible by washout | 
3 | O.O=C([O-])CN(CCO)CCN(CC(=O)[O-])CC(=O)[O-].[Cl-].[K+].[Ru+3] [Example 3, K[Ru(hedtra)Cl]H2O] | 42 | pressure decrease indicated binding of NO | dose-dependent vasoconstriction | 17 | 59 | reversible by washout | 
4 | O.O=C([O-])c1cccc(C(=O)[O-])n1.O=C([O-])c1cccc(C(=O)[O-])n1.[K+].[Ru+3] [Example 4, K[Ru(dipic)2]H2O] |  | pressure decrease indicated binding of NO |  |  |  |  | 
5 | O.O=C([O-])CN(CCN(CC(=O)O)CC(=O)O)CC(=O)[O-].[Cl-].[Cl-].[K+].[Ru+3] [Example 6, K[Ru(H2edta)Cl2]H2O] | 77 | pressure decrease indicated binding of NO |  |  |  |  | 
6 | CC(=O)[O-].CC(=O)[O-].CC(=O)[O-].CC(=O)[O-].[Cl-].[Ru+3].[Ru+3] [Example 14, [Ru2(OAc)4]Cl] | 47 |  | dose-dependent vasoconstriction | 11 | 40 | reversible by washout | 
7 | Cc1occc(=O)c1[O][Ru]([O]c1c(C)occc1=O)[O]c1c(C)occc1=O [Example 26, [Ru(maltol)3]] | 71 |  | dose-dependent vasoconstriction | 10 | 18 | reversible by washout | % Vasoconstriction (rat tail artery; 1000 μM): 25%
8 | K[Ru(H2dtpa)Cl]H2O [Example 8] |  | pressure decrease indicated binding of NO |  |  |  |  | Nitrite/nitrate levels at Day 28 [3]: 5.09 μmoles/litre plasma; Tumour vascularisation (MVD), Mean Chalkey score [3]: 5.3; Tumour growth [3]: inhibited the growth
9 | K[Ru(hnta)2]½H2O [Example 7] |  | pressure decrease indicated binding of NO |  |  |  |  | 
10 | [Ru(Hedta)]H2O [AMD6245] |  |  |  |  |  |  | Nitrite/nitrate levels at Day 28 [3]: 3.88 μmoles/litre plasma; Tumour vascularisation (MVD), Mean Chalkey score [3]: 3.0; Tumour growth [3]: inhibited the growth
11 | [Ru(NH3)5Cl]Cl2 [Example 15] | 86 |  | dose-dependent vasoconstriction | 77 | 86 | reversible by washout | 
